Reference: ChEMBL document CHEMBL4813955 (Eur J Med Chem, 2021)
Calls of active or inactive are those of the source. The calls are words filed in the database; no cut-off is given here.

Tests used:
[1] = molecular target: T1, D(4) dopamine receptor (Homo sapiens) (UniProt P21917); experiment: Displacement of [3H]N-methylspiperone from human dopamine D4 receptor at 10 uM incubated for 1 hr by liquid scintillation counting method
T1 sequence (whole entry): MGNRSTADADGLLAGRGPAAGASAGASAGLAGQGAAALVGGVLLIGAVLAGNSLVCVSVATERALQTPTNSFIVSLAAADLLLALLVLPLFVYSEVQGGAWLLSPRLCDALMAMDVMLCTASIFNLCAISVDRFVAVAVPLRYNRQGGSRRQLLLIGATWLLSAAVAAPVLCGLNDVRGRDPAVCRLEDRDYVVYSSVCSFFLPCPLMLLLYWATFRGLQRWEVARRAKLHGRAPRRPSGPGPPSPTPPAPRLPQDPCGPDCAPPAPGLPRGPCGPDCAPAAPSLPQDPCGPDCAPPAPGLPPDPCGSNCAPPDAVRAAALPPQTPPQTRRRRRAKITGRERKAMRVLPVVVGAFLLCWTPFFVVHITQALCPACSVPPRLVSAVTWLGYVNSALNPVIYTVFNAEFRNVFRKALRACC

[2] = molecular target: T2, 5-hydroxytryptamine receptor 2C (Homo sapiens) (UniProt P28335); experiment: Displacement of [3H]-Mesulergine from human 5-HT2C receptor at 10 uM incubated for 1 hr by liquid scintillation counting method
T2 sequence (whole entry): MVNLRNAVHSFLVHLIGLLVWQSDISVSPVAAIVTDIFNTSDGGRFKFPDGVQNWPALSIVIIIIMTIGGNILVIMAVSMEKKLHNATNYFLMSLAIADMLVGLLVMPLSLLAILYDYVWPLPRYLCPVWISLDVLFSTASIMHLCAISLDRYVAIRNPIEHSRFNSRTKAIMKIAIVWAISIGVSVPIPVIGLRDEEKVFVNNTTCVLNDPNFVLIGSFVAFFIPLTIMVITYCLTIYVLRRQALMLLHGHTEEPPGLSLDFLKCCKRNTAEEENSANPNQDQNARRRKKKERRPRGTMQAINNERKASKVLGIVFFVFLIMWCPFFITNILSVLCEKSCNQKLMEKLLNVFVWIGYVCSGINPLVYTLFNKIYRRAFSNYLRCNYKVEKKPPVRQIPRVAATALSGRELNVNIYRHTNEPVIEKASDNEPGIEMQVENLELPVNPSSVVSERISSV

[3] = molecular target: D(2) dopamine receptor (Homo sapiens, UniProt P14416); experiment: Displacement of [3H]N-methylspiperone from human dopamine D2 receptor at 10 uM incubated for 1 hr by liquid scintillation counting method
[4] = molecular target: D(3) dopamine receptor (Homo sapiens, UniProt P35462); experiment: Displacement of [3H]N-methylspiperone from human dopamine D3 receptor at 10 uM incubated for 1 hr by liquid scintillation counting method
D(3) dopamine receptor, sequence (P35462 whole entry): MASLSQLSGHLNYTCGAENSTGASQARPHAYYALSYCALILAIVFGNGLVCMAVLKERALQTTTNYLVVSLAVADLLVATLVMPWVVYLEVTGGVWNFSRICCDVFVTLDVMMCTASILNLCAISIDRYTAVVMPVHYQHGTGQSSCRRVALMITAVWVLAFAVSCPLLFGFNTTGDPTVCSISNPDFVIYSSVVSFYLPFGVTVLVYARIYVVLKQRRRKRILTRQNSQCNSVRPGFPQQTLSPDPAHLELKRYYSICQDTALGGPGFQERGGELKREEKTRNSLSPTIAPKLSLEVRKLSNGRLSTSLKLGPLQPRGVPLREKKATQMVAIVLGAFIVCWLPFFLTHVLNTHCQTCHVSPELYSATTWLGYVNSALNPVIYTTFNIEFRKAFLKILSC

D(2) dopamine receptor, sequence (P14416 whole entry): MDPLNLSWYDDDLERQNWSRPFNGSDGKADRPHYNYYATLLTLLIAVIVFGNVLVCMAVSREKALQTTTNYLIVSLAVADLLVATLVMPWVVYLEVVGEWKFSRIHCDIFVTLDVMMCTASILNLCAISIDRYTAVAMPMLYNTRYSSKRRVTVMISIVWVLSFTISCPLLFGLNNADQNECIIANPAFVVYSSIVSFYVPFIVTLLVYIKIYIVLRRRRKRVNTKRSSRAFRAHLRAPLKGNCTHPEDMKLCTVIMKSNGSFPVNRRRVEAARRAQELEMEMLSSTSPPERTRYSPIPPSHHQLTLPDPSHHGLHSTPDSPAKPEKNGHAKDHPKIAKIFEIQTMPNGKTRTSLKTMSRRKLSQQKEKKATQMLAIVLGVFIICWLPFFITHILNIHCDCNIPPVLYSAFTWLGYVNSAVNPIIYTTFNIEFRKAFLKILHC

Row | inhibition [2] | inhibition [3] | Structure (SMILES) | further results
1 | inactive | inactive | O=C1c2ccc(F)cc2CC1CCN1CCN(c2ccccn2)CC1 (stereo not given) | 
2 |  | inactive | O=C1c2ccc(Cl)cc2CC1CCCN1CCN(c2ccccn2)CC1 (stereo not given) | 
3 | inactive |  | O=C1CCc2cc(C(=O)CCCN3CCN(c4ccccn4)CC3)ccc2N1 | 
4 | inactive |  | OC1c2ccc(F)cc2CC1CCN1CCN(c2ccccn2)CC1 (stereo not given) | 

More lines, now with the values behind:

Row | Structure (SMILES) | inhibition [2] | inhibition [3] | further results
5 | O=C1CCc2cc(OCCCN3CCCN(c4ccccn4)CC3)ccc2N1 |  |  | inhibition [1]: inactive
6 | O=C1c2ccc(Cl)cc2CC1CCN1CCN(c2ccccn2)CC1 (stereo not given) |  | inactive | inhibition [4]: inactive
7 | O=C1CCc2cc(OCCCN3CCN(c4ccccn4)CC3)ccc21 |  | inactive | 
8 | Nc1ccc(CCCCN2CCN(c3ccccn3)CC2)cc1 | inactive |  | 
